From US20040018235A1, “Controlled release pharmaceutical composition” (KOWA CO., LTD, priority 2002, published 2004)

Test: Absorption sites of pitavastatin in rat (in situ loop test)
Format: in vivo

Absorption percentage (duodenum, 0.5 h): 65.9 ± 2.1%
Absorption percentage (duodenum, 1 h): 60.3 ± 10.2%
Absorption percentage (large intestine, 0.5 h): 34.4 ± 3.7%
Absorption percentage (large intestine, 1 h): 51.6 ± 6.7%
Percentage of absorption in the small intestine relative to that in the duodenum (see Table 1): about one-third
Absorption percentage (small intestine, 0.5 h): 23.1 ± 3.8%
Absorption percentage (small intestine, 1 h): 21.3 ± 3.0%
Absorption percentage (stomach, 0.5 h): 8.6 ± 1.1%
Absorption percentage (stomach, 1 h): 14.4 ± 1.6%
Compound: O=C(O)C[C@H](O)C[C@H](O)/C=C/c1c(C2CC2)nc2ccccc2c1-c1ccc(F)cc1 [pitavastatin, (+)-(3R,5S,6E)-7-[2-cyclopropyl-4-(4-fluorophenyl)-3-quinolyl]-3,5-dihydroxy-6-heptenoic acid]
